The test system of assay [1] is West Nile virus. Kind of assay: Cytotoxicity against West Nile virus. Format: organism-based.
Assay [2] has as its system SARS-CoV. Nature of the assay: Antiviral activity against SARS coronavirus. The class given is functional, organism-based. The conditions noted are these: Severe acute respiratory syndrome-related coronavirus.
Assay [3] has as its system Venezuelan equine encephalitis virus. Kind of assay: Cytotoxicity against Venezuelan equine encephalitis virus. Format: organism-based.
The test system of assay [4] is SARS-CoV. Kind of assay: Cytotoxicity against SARS coronavirus. The class given is organism-based. The conditions noted are these: Severe acute respiratory syndrome-related coronavirus.
Assay [5] relates to Vaccinia virus. Nature of the assay: Selective index against Vaccinia virus. Format: functional, Orthopoxvirus vaccinia.
Assay [6] has as its system Venezuelan equine encephalitis virus. Kind of assay: Antiviral activity against Venezuelan equine encephalitis virus. Format: functional, organism-based.
The subject of assay [7] is Vaccinia virus. Nature of the assay: Antiviral activity against Vaccinia virus. The class given is functional, organism-based. Particulars: Orthopoxvirus vaccinia.
Assay [8] concerns Venezuelan equine encephalitis virus. Kind of assay: Selective index against Venezuelan equine encephalitis virus. Format: functional.
Assay [9] concerns Cowpox virus. Kind of assay: Antiviral activity against Cowpox virus. Format: functional, organism-based.
Assay [10] deals with Cowpox virus. Kind of assay: Selective index against Cowpox virus. Format: functional.
In assay [11] the test system is SARS-CoV. Nature of the assay: Selective index against SARS coronavirus. The class given is functional, Severe acute respiratory syndrome-related coronavirus.
Assay [12] concerns West Nile virus. Nature of the assay: Antiviral activity against West Nile virus. Format: functional, organism-based.
Assay [13] concerns Yellow fever virus. Nature of the assay: Antiviral activity against Yellow fever virus. Format: functional, organism-based.
Assay [14] in a line: Cytotoxicity against Cowpox virus. The class given is organism-based.
Assay [15] relates to Yellow fever virus. Kind of assay: Selective index against Yellow fever virus. The class given is functional.
The nature of assay [16]: Cytotoxicity against Vaccinia virus. Format: organism-based. The conditions noted are these: Orthopoxvirus vaccinia.
In assay [17] the test system is Yellow fever virus. Kind of assay: Cytotoxicity against Yellow fever virus. Format: organism-based.

Consider `NC(=O)c1cn([C@@H]2C=C(CO)[C@@H](O)[C@H]2O)nn1`, for which the IC50 in [1] is more than 100 µM; in [3] it was more than 100 µM; in [4] it was more than 100 µM; in assay [14], more than 300 µM; in assay [16], more than 300 µM; in [17], more than 100 µM. Further, the EC50 in [2] was 47 µM; in assay [6] it was more than 100 µM; in assay [7] it was 0.4 µM; in assay [9], 39 µM; in assay [12] it was more than 100 µM; in assay [13], more than 100 µM. Further, the Selectivity index in [5] is on record as more than 750; in assay [8] it was 0; in assay [10], more than 7.7; in [11], more than 2.1; in assay [15], 0.

`NC(=O)c1cn([C@@H]2C=C(CO)[C@@H](O)[C@H]2O)cn1`: the IC50 in assay [1] was more than 100 µM; in assay [3] it was more than 100 µM; in assay [4] it was more than 100 µM; in assay [14] it was more than 300 µM; in assay [16], more than 300 µM; in [17], more than 100 µM. The EC50 in assay [2] is more than 100 µM; in [6], more than 100 µM; in assay [7], more than 300 µM; in assay [9], more than 300 µM; in [12] it was more than 100 µM; in assay [13], more than 100 µM. Further, the Selectivity index in [5], in [8], in [10], in [11] and in [15] was 0 each time.

With `Nc1ccn(C[C@@H](CO)OCP(=O)(O)O)c(=O)n1` [CIDOFOVIR], the EC50 in [7] came out at 6 µM. Further, the IC50 in [14] was more than 317 µM; in assay [16] it was less than 317 µM.

Turning to `NC(=O)c1ncn([C@@H]2C=C(CO)[C@@H](O)[C@H]2O)n1`, the IC50 is more than 100 µM in assay [1]; more than 100 µM in assay [3]; more than 100 µM in assay [4]; more than 300 µM in [14]; more than 300 µM in [16]; more than 100 µM in assay [17]. The EC50 in assay [2] is 21 µM; in [6] it was more than 100 µM; in [7], more than 300 µM; in [9], more than 300 µM; in assay [12], more than 100 µM; in assay [13] it was more than 100 µM. Further, the Selectivity index was 0 in assay [5]; 0 in [8]; 0 in [10]; more than 4.8 in assay [11]; 0 in [15].

The values are drawn from ChEMBL document CHEMBL1148631, “Synthesis of cyclopentenyl carbocyclic nucleosides as potential antiviral agents against orthopoxviruses and SARS” (J Med Chem, 2006).
